US7244758B2, “N-type calcium channel blockers” (Neuromed Pharmaceuticals Ltd., priority 2003, dated 2007)
Read-outs that look alike come from different tables or passages of the source.

Tests used:
[1] = biological target: T1, rat brain N-type calcium channel subunits (α1B+α2δ+β1b) (Rattus norvegicus, UniProt Q02294); experiment: N-type calcium channel block, whole cell patch clamp in HEK 293 cells; format: cell-based; conditions: holding −80 mV to +10 mV, 5 mM Ba
T1 construct: expressed in transfected cells; host or cells: HEK 293
T1 sequence (Q02294 whole entry): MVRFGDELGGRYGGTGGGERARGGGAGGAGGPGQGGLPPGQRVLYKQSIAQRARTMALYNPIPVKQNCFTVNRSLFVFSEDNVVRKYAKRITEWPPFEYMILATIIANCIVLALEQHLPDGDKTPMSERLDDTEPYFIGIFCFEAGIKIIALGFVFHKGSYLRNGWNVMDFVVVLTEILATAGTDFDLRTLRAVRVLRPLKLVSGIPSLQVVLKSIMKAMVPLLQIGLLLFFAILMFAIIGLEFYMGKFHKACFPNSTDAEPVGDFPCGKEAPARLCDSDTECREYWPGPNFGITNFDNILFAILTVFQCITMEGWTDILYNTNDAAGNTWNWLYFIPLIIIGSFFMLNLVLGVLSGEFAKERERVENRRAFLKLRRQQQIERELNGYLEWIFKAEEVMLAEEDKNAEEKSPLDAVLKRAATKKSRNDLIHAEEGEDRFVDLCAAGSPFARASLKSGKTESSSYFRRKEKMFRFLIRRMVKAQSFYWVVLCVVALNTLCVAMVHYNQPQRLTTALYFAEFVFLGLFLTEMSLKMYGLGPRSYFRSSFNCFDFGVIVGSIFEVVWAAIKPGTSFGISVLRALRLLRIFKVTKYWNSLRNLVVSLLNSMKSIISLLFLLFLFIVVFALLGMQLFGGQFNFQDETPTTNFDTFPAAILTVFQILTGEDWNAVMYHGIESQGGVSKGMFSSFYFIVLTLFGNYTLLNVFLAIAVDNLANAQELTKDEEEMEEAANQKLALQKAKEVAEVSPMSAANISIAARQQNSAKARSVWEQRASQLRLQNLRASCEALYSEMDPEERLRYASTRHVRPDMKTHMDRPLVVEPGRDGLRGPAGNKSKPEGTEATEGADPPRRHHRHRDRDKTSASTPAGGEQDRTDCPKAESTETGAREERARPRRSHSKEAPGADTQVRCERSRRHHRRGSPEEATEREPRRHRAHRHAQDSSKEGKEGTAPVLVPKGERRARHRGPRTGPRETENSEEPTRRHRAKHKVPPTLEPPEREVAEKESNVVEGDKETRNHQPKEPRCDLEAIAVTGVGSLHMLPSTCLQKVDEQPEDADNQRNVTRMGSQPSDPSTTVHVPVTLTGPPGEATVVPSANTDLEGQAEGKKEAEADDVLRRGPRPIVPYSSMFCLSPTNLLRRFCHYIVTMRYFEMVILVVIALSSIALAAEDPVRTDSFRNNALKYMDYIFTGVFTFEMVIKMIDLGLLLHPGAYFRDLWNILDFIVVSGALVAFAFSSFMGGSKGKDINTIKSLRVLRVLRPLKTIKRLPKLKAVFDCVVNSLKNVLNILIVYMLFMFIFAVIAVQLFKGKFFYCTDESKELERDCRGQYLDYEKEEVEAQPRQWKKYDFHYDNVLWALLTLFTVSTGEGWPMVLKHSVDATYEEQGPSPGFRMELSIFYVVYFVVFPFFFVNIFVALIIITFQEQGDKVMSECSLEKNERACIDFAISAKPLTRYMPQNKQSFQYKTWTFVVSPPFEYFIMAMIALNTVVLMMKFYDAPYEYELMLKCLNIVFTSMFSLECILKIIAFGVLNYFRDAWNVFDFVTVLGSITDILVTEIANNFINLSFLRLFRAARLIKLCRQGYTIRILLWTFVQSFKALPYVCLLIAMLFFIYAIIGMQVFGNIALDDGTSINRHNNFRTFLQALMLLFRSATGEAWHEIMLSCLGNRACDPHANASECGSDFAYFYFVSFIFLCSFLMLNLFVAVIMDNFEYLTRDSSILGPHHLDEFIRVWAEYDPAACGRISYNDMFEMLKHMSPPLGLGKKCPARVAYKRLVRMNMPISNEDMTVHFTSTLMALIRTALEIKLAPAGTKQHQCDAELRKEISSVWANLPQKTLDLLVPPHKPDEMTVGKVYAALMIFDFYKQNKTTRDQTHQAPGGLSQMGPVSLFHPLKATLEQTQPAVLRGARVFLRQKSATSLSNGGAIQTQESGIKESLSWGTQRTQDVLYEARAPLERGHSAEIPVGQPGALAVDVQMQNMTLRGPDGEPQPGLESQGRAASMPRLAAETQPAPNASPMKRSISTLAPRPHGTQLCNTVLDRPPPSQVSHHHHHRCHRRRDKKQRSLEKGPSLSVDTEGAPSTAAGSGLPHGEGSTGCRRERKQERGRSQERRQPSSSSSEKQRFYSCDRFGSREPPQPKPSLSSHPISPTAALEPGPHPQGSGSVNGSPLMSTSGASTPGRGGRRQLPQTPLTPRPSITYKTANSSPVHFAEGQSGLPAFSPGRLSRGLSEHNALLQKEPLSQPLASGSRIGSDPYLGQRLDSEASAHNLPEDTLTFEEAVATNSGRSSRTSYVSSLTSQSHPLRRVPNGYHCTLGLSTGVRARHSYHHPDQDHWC
Description: Antagonist activity was measured using whole cell patch recordings on human embryonic kidney cells either stably or transiently expressing rat α1B+α2δ+β1b channels (N-type channels) with 5 mM barium as a charge carrier. P/Q-type channels (α1A+α2δ+β1b cDNA subunits) and L-type channels (α1C+α2δ+β1b cDNA subunits) were also transiently expressed in HEK 293 cells.
For transient expression, host cells, such as human embryonic kidney cells, HEK 293 (ATCC# CRL 1573) were grown in standard DMEM medium supplemented with 2 mM glutamine and 10% fetal bovine serum. HEK 293 cells were transfected by a standard calcium-phosphate-DNA coprecipitation method using the rat α1B+β1b+α2δ N-type calcium channel subunits in a vertebrate expression vector (for example, see Current Protocols in Molecular Biology).
After an incubation period of from 24 to 72 hrs the culture medium was removed and replaced with external recording solution (see below). Whole cell patch clamp experiments were performed using an Axopatch 200B amplifier (Axon Instruments, Burlingame, Calif.) linked to an IBM compatible personal computer equipped with pCLAMP software. Borosilicate glass patch pipettes (Sutter Instrument Co., Novato, Calif.) were polished (Microforge, Narishige, Japan) to a resistance of about 4 MΩ when filled with cesium methanesulfonate internal solution (composition in MM: 109 CsCH3 SO4, 4 MgCl2, 9 EGTA, 9 HEPES, pH 7.2). Cells were bathed in 5 mM Ba^++ (in mM: 5 BaCl2, 1 MgCl2, 10 HEPES, 40 tetraethylammonium chloride, 10 glucose, 87.5 CsCl pH 7.2). […] Drugs were perfused directly into the vicinity of the cells using a microperfusion system.
Normalized dose-response curves were fit (Sigmaplot 4.0, SPSS Inc., Chicago, Ill.) by the Hill equation to determine IC50 values. Steady-state inactivation curves were plotted as the normalized test pulse amplitude following 5 s inactivating prepulses at +10 mV increments. Inactivation curves were fit (Sigmaplot 4.0) with the Boltzman equation, Ipeak (normalized)=1/(1+exp((V−Vh)z/25.6)), where V and Vh are the conditioning and half inactivation potentials, respectively, and z is the slope factor.
N-type calcium channel blocking activity was assayed in human embryonic kidney cells, HEK 293, stably transfected with the rat brain N-type calcium channel subunits (α1B+α2δ+β1b cDNA subunits). Alternatively, N-type calcium channels (α1B+α2δ+β1b cDNA subunits), L-type channels (α1C+α2δ+β1b cDNA subunits) and P/Q-type channels (α1A+α2δ+β1b cDNA subunits) were transiently expressed in HEK 293 cells. Briefly, cells were cultured in Dulbecco's modified eagle medium (DMEM) supplemented with 10% fetal bovine serum, 200 U/ml penicillin and 0.2 mg/ml streptomycin at 37° C. with 5% CO2. At 85% confluency cells were split with 0.25% trypsin/1 mM EDTA and plated at 10% confluency on glass coverslips. At 12 hours the medium was replaced and the cells transiently transfected using a standard calcium phosphate protocol and the appropriate calcium channel cDNA's. Fresh DMEM was supplied and the cells transferred to 28° C./5% CO2. Cells were incubated for 1 to 2 days to whole cell recording.
Whole cell patch clamp experiments were performed using an Axopatch 200B amplifier (Axon Instruments, Burlingame, Calif.) linked to a personal computer equipped with pCLAMP software. The external and internal recording solutions contained, respectively, 5 mM BaCl2, […], 10 mM HEPES, 40 mM TEACl, 10 mM glucose, 87.5 mM CsCl (pH 7.2) and 108 mM CsMS, 4 mM MgCl2, 9 mM EGTA, 9 mM HEPES (pH 7.2). Currents were typically elicited from a holding potential of −80 mV to +10 mV using Clampex software (Axon Instruments).

[2] = biological target: T2, human α1G T-type channels (Homo sapiens, UniProt O43497); experiment: Block of α1G T-type channels, whole-cell patch clamp in HEK cells; format: cell-based
T2 construct: expressed in transfected cells
T2 sequence (O43497 whole entry): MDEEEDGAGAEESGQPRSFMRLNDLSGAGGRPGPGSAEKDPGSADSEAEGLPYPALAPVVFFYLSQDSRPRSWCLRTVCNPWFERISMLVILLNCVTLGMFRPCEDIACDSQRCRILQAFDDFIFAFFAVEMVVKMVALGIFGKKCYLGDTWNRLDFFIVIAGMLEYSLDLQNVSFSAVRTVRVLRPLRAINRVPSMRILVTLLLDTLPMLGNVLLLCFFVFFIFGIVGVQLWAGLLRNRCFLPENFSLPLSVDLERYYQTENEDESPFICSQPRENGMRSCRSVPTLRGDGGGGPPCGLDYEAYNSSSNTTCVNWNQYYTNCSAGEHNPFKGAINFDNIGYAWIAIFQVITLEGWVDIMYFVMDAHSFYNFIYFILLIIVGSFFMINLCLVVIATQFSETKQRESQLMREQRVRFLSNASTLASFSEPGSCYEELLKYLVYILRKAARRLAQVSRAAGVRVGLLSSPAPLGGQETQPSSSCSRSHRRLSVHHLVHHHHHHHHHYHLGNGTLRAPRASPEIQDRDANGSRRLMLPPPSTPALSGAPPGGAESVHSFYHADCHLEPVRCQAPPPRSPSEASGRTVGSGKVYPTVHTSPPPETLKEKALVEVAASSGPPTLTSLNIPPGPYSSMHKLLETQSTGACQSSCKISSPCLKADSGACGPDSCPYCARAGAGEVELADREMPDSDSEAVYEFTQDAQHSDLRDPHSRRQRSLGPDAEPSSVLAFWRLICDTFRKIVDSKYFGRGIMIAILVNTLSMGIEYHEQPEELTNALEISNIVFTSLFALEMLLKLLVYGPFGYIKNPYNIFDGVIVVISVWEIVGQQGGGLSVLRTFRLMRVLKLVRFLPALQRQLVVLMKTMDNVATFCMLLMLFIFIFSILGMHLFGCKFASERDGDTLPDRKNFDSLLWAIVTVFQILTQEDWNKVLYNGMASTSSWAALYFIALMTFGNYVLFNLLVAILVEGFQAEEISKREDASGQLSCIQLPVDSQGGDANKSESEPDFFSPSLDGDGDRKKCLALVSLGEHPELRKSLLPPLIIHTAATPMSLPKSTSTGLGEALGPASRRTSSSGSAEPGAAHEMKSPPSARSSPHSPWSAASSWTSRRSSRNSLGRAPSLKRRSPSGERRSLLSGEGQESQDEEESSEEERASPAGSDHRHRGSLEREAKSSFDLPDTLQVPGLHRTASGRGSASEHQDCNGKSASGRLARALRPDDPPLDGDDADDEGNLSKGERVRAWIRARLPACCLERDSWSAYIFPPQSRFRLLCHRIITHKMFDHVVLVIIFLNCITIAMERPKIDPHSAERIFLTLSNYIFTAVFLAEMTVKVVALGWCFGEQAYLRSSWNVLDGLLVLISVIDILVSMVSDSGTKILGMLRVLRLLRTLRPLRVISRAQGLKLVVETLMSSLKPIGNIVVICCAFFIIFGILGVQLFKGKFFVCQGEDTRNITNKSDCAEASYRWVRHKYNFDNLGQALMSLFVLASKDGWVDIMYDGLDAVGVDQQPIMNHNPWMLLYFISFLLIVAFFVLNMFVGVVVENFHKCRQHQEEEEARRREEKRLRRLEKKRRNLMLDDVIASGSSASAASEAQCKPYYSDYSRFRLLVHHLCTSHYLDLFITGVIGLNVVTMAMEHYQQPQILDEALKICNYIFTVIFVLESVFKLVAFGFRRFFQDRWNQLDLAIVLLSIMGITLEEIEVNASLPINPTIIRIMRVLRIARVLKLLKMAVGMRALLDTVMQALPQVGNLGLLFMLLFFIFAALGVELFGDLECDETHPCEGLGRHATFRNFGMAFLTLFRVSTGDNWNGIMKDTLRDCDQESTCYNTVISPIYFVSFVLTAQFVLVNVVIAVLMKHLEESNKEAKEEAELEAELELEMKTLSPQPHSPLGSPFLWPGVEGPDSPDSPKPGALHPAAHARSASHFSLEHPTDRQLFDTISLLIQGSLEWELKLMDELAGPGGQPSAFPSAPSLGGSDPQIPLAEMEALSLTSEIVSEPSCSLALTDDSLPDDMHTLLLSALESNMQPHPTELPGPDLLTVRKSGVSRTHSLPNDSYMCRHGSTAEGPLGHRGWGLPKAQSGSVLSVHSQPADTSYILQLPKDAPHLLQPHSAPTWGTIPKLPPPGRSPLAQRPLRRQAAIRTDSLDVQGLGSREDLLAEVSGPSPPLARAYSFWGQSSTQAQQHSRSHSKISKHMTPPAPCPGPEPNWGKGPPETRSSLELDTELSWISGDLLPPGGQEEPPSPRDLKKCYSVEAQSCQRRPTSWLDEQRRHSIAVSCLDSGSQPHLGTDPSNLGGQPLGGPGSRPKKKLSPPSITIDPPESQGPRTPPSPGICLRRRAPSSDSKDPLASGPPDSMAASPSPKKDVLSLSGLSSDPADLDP
Description: Standard patch-clamp techniques were employed to identify blockers of T-type currents. Briefly, previously described HEK cell lines stably expressing human α1G T-type channels were used for all the recordings (passage #: 4-20, 37° C., 5% CO2). To obtain T-type currents, plastic dishes containing semi-confluent cells were positioned on the stage of a ZEISS AXIOVERT S100 microscope after replacing the culture medium with external solution (see below). Whole-cell patches were obtained using pipettes (borosilicate glass with filament, O.D.: 1.5 mm, I.D.: 0.86 mm, 10 cm length), fabricated on a SUTTER P-97 puller with resistance values of ˜5 MΩ (see below for internal solution).
In the non-inactivating protocol, the holding potential is set at −110 mV and with a pre-pulse at −100 mV for 1 second prior to the test pulse at −40 mV for 50 ms. […]
Test compounds were dissolved in external solution, 0.1-0.01% DMSO. After ˜10 min rest, they were applied by gravity close to the cell using a WPI microfil tubing. The “non-inactivated” pre-pulse was used to examine the resting block of a compound. The “inactivated” protocol was employed to study voltage-dependent block. However, the initial data shown below were mainly obtained using the non-inactivated protocol only. IC50 values are shown for various compounds of the invention in Table 6.

[3] = low frequency stimulation 0.067 Hz (tonic block), read-out: IC50 at 0.067 Hz
[4] = pulse frequency 0.2 Hz (frequency dependent block), read-out: IC50 at 0.2 Hz
[5] = inactivation protocol (voltage-dependent block), read-out: IC50 at −80 mV
[6] = non-inactivating protocol, pre-pulse −100 mV (resting block), read-out: IC50 at −100 mV

Row | SMILES | IC50 [1, 3] | IC50 [1, 4] | IC50 [2, 5] | IC50 [2, 6] | IC50 at −100 mV ([2]; non-inactivating protocol, pre-pulse −100 mV (resting block))
1 | COc1cc(C(=O)N2CCC(CN(C)CCCCCC(c3ccc(F)cc3)c3ccc(F)cc3)C2)cc(OC)c1OC (stereo not drawn) [Compound P63] | 380 nM | 330 nM |  |  | 
2 | COc1cc(C(=O)NCC2CCN(CCCCCC(c3ccc(F)cc3)c3ccc(F)cc3)C2)cc(OC)c1OC (stereo not drawn) [Compound P20] | 450 nM | 280 nM |  |  | 
3 | O=C(CC(c1ccccc1)c1ccccc1)N1CCC(CNC(c2ccccc2)c2ccccc2)C1 (stereo not drawn) [Compound P2] | 1070 nM | 840 nM | 52 nM | 326 nM | 
4 | O=C(NCC1CCN(C(c2ccccc2)c2ccccc2)C1)NC(c1ccccc1)c1ccccc1 (stereo not drawn) [Compound P47] | 295 nM | 185 nM | 8 nM | 24 nM | 
5 | CC(C)(C)c1ccc(C(c2ccccc2)N2CCC(CNC(=O)CC(c3ccc(F)cc3)c3ccc(F)cc3)C2)cc1 (stereo not drawn) [Compound P52] | 135 nM | 110 nM |  |  | 
6 | COc1cc(C(=O)N2CCC(CNC(=O)CCCCC(c3ccc(F)cc3)c3ccc(F)cc3)C2)cc(OC)c1OC (stereo not drawn) [Compound P5] | 59 nM |  |  |  | No effect
7 | CN(C)CCOc1c(C(C)(C)C)cc(C(=O)N2CCC(CNC(=O)CCCCC(c3ccc(F)cc3)c3ccc(F)cc3)C2)cc1C(C)(C)C (stereo not drawn) [Compound P23] | 410 nM | 200 nM |  |  | 
8 | Cc1cc(C)cc(NCC(=O)NCC2CCN(C(=O)CCCCC(c3ccc(F)cc3)c3ccc(F)cc3)C2)c1 (stereo not drawn) [Compound P40] | 19 nM | 3 nM | 105 nM | 328 nM | 
9 | COc1c(C(C)(C)C)cc(CNCC2CCN(CCCCCC(c3ccc(F)cc3)c3ccc(F)cc3)C2)cc1C(C)(C)C (stereo not drawn) [Compound P14] | 39 nM |  |  |  | 
10 | O=C(CN(CC(=O)N(c1ccccc1)c1ccccc1)CC1CCN(C(c2ccccc2)c2ccccc2)C1)N(c1ccccc1)c1ccccc1 (stereo not drawn) [Compound P46] | 7 nM | 1 nM | 5 nM | 23 nM | 
11 | O=C(CC(c1ccccc1)c1ccccc1)NCC1CCN(C(c2ccccc2)c2ccccc2)C1 (stereo not drawn) [Compound P1] | 61 nM |  |  |  | 
12 | CC(C)(C)c1cc(C(=O)NCC2CCN(C(=O)CCCCC(c3ccc(F)cc3)c3ccc(F)cc3)C2)cc(C(C)(C)C)c1 (stereo not drawn) [Compound P44] | 265 nM | 119 nM | 29 nM | 52 nM | 
13 | COc1cc(CNCC2CCN(CCCCCC(c3ccc(F)cc3)c3ccc(F)cc3)C2)cc(OC)c1OC (stereo not drawn) [Compound P4] | 400 nM |  |  |  | 
14 | O=C(CC(c1ccc(F)cc1)c1ccc(F)cc1)NCC1CCN(C(c2ccccc2)c2ccccc2)C1 (stereo not drawn) [Compound P51] | 72 nM | 56 nM |  |  | 
15 | O=C(CC(c1ccccc1)c1ccccc1)NCC1CCN(C(c2ccccc2)c2cccc(Cl)c2)C1 (stereo not drawn) [Compound P38] | 80 nM | 24 nM | 21 nM | 94 nM | 
16 | O=C(CC(c1ccc(F)cc1)c1ccc(F)cc1)NCC1CCN(C(c2ccccc2)c2ccc(F)cc2)C1 (stereo not drawn) [Compound P50] | 76 nM | 53 nM |  |  | 
17 | CC(C)(C)c1cc(C(=O)N2CCC(CNC(=O)CCCCC(c3ccc(F)cc3)c3ccc(F)cc3)C2)cc(C(C)(C)C)c1O (stereo not drawn) [Compound P9] | 15 nM |  |  |  | 
18 | O=C(COc1ccc(Cl)cc1)NCC1CCN(C(=O)CCCCC(c2ccc(F)cc2)c2ccc(F)cc2)C1 (stereo not drawn) [Compound P36] | 100 nM | 20 nM | 12 nM | 30 nM | 
19 | COc1cc(CN2CCC(CNCCCCCC(c3ccc(F)cc3)c3ccc(F)cc3)C2)cc(OC)c1OC (stereo not drawn) [Compound P6] | 212 nM |  |  |  | 
20 | CN(CCC(c1ccccc1)c1ccccc1)CC1CCN(C(c2ccccc2)c2ccccc2)C1 (stereo not drawn) [Compound P56] | 137 nM | 92 nM |  |  | 
21 | CN(CC(=O)N(c1ccccc1)c1ccccc1)CC1CCN(C(c2ccccc2)c2ccccc2)C1 (stereo not drawn) [Compound P54] | 279 nM | 241 nM | 55 nM | 153 nM | 
22 | COc1c(C(C)(C)C)cc(C(=O)N2CCC(CNC(=O)CCCCC(c3ccc(F)cc3)c3ccc(F)cc3)C2)cc1C(C)(C)C (stereo not drawn) [Compound P11] | 10 nM |  |  | 27 nM | 
23 | CC(C)(C)c1cc(C(=O)NCC2CCN(C(=O)CCCCC(c3ccc(F)cc3)c3ccc(F)cc3)C2)cc(C(C)(C)C)c1O (stereo not drawn) [Compound P7] | 49 nM |  |  |  | 
24 | CC(C)(C)c1cc(CNCC2CCN(CCCCCC(c3ccc(F)cc3)c3ccc(F)cc3)C2)cc(C(C)(C)C)c1 (stereo not drawn) [Compound P18] | 28 nM |  |  |  | 
25 | COc1c(C(C)(C)C)cc(C(=O)NCC2CCN(C(=O)CCCCC(c3ccc(F)cc3)c3ccc(F)cc3)C2)cc1C(C)(C)C (stereo not drawn) [Compound P42] |  |  | 59 nM | 94 nM | 
26 | O=C(NCC1CCN(CCCCCC(c2ccc(F)cc2)c2ccc(F)cc2)C1)c1cc(C(F)(F)F)cc(C(F)(F)F)c1 (stereo not drawn) [Compound P21] | 210 nM | 150 nM |  |  | 
27 | CC(C)(C)c1cc(CNCC2CCN(CCCCCC(c3ccc(F)cc3)c3ccc(F)cc3)C2)cc(C(C)(C)C)c1O (stereo not drawn) [Compound P8] | 35 nM |  |  |  | 
28 | COc1c(C(C)(C)C)cc(C(=O)NCC2CCN(CCCCCC(c3ccc(F)cc3)c3ccc(F)cc3)C2)cc1C(C)(C)C (stereo not drawn) [Compound P19] |  |  |  | 70 nM | 
29 | CN(CC1CCN(C(c2ccccc2)c2ccccc2)C1)C(=O)CC(c1ccccc1)c1ccccc1 (stereo not drawn) [Compound P53] | 223 nM | 157 nM |  |  | 
30 | COc1c(C(C)(C)C)cc(CN2CCC(CNCCCCCC(c3ccc(F)cc3)c3ccc(F)cc3)C2)cc1C(C)(C)C (stereo not drawn) [Compound P12] | 32 nM |  |  |  | 
